Assays:
[1] = tested on: Rattus norvegicus; experiment: Toxicity is evaluated according to a five-level scale ranging from 0 to 5+ at the specified iv dose of 22.0 (umol/kg/day); type: organism-based; conditions: in vivo
[2] = tested on: Pneumocystis carinii; experiment: The compound was tested in vivo against Pneumocystis carinii pneumonia (PCP) in the immunosuppressed rat model at oral dose of 33.0(umol/kg/day); type: functional
[3] = tested on: Rattus norvegicus; experiment: Toxicity is evaluated according to a five-level scale ranging from 0 to 5+ at the specified oral dose of 33.0 (umol/kg/day); type: organism-based; conditions: in vivo
[4] = tested on: Pneumocystis carinii; experiment: The compound was tested in vivo against Pneumocystis carinii pneumonia (PCP) in the immunosuppressed rat model at iv dose of 22.0 (umol/kg/day); type: functional
[5] = tested on: Rattus norvegicus; experiment: Toxicity is evaluated according to a five-level scale ranging from 0 to 5+ at the specified iv dose of 11.0 (umol/kg/day); type: organism-based; conditions: in vivo
[6] = tested on: Pneumocystis carinii; experiment: The compound was tested in vivo against Pneumocystis carinii pneumonia (PCP) in the immunosuppressed rat model at iv dose of 11.3(umol/kg/day); type: functional
[7] = tested on: Rattus norvegicus; experiment: Toxicity is evaluated according to a five-level scale ranging from 0 to 5+ at the specified iv dose of 13.3 (umol/kg/day); type: organism-based; conditions: in vivo
[8] = tested on: Rattus norvegicus; experiment: Toxicity is evaluated according to a five-level scale ranging from 0 to 5+ at the specified oral dose of 39.8 (umol/kg/day); type: organism-based; conditions: in vivo
[9] = tested on: Pneumocystis carinii; experiment: The compound was tested in vivo against Pneumocystis carinii pneumonia (PCP) in the immunosuppressed rat model at iv dose of 13.3 (umol/kg/day); type: functional
[10] = tested on: Pneumocystis carinii; experiment: The compound was tested in vivo against Pneumocystis carinii pneumonia (PCP) in the immunosuppressed rat model at oral dose of 39.8(umol/kg/day); type: functional
[11] = tested on: Rattus norvegicus; experiment: Toxicity is evaluated according to a five-level scale ranging from 0 to 5+ at the specified iv dose of 34.7 (umol/kg/day); type: organism-based; conditions: in vivo
[12] = tested on: Pneumocystis carinii; experiment: The compound was tested in vivo against Pneumocystis carinii pneumonia (PCP) in the immunosuppressed rat model at iv dose of 34.7 (umol/kg/day); type: functional
[13] = tested on: Pneumocystis carinii; experiment: The compound was tested in vivo against Pneumocystis carinii pneumonia (PCP) in the immunosuppressed rat model at iv dose of 11.0 (umol/kg/day); type: functional

For `CCSC(=O)NC(=N)c1ccc(-c2ccc(-c3ccc(C(=N)NC(=O)SCC)cc3)o2)cc1`, the Toxicity [1] was 0, the Control [2] was 19.52% and the Toxicity [3] was 0. For the same molecule, the Control [4] was 83.01%.
For `N=C(NC(=O)OCc1ccccc1)c1ccc(-c2ccc(-c3ccc(C(=N)NC(=O)OCc4ccccc4)cc3)o2)cc1`, the Toxicity [5] was 0, the Control [2] was 18.09% and the Control [6] was 0.03%. For the same molecule, the Toxicity [3] was 0.
With `N=C(N)c1ccc(-c2ccc(-c3ccc(C(=N)N)cc3)o2)cc1` [FURAMIDINE] the Toxicity [7] was 0, the Toxicity [8] was 0 and the Control [9] was 0.83%. It also gave a Control [10] of 44.52%.
Molecule `N=C(NC(=O)Oc1ccccc1)c1ccc(-c2ccc(-c3ccc(C(=N)NC(=O)Oc4ccccc4)cc3)o2)cc1` has a Toxicity [1] of 0, a Control [2] of 5.7% and a Toxicity [3] of 0. For the same molecule, the Control [4] was 3.61%.
With `N=C(N)c1ccc(OCCCCCOc2ccc(C(=N)N)cc2)cc1` [PENTAMIDINE] the Control [4] was 3.06%.
For `COc1ccc(OC(=O)NC(=N)c2ccc(-c3ccc(-c4ccc(C(=N)NC(=O)Oc5ccc(OC)cc5)cc4)o3)cc2)cc1`, the Toxicity [1] was 0, the Control [2] was 2.1% and the Toxicity [3] was 0. It also gave a Control [4] of 0.02%.
Molecule `Cc1oc(=O)oc1COC(=O)NC(=N)c1ccc(-c2ccc(-c3ccc(C(=N)NC(=O)OCc4oc(=O)oc4C)cc3)o2)cc1` has a Toxicity [1] of 0, a Control [2] of 18.73% and a Toxicity [3] of 0. The Control [4] was 0.02%.
`N/C(=N\C(=O)OCC(Cl)(Cl)Cl)c1ccc(-c2ccc(-c3ccc(/C(N)=N\C(=O)OCC(Cl)(Cl)Cl)cc3)o2)cc1` was tested, and the Toxicity [1] was 0, the Control [2] was 8.59% and the Toxicity [3] was 0. It also gave a Control [4] of 1.85%.
Molecule `COC(=O)NC(=N)c1ccc(-c2ccc(-c3ccc(C(=N)NC(=O)OC)cc3)o2)cc1` has a Toxicity [1] of 0, a Control [2] of 49.68% and a Toxicity [3] of 0. For the same molecule, the Control [4] was 6.91%.
`CCOC(=O)ONC(=N)c1ccc(-c2ccc(-c3ccc(C(=N)NOC(=O)OCC)cc3)o2)cc1` was tested, and the Control [2] was 96.9%, the Toxicity [3] was 0 and the Toxicity [11] was 0. For the same molecule, the Control [12] was 1.66%.
`N=C(NC(=O)Oc1ccc(F)cc1)c1ccc(-c2ccc(-c3ccc(C(=N)NC(=O)Oc4ccc(F)cc4)cc3)o2)cc1` gave a Toxicity [1] of 0, a Control [2] of 2.21% and a Toxicity [3] of 0. The Control [4] was 0.02%.
`CC(=O)OC(C)OC(=O)NC(=N)c1ccc(-c2ccc(-c3ccc(C(=N)NC(=O)OC(C)OC(C)=O)cc3)o2)cc1` (centres undefined) showed a Control [2] of 57.16%, a Toxicity [3] of 0 and a Control [13] of 1.21%.

Reference: ChEMBL document CHEMBL1132181, “Prodrugs for amidines: synthesis and anti-Pneumocystis carinii activity of carbamates of 2,5-bis(4-amidinophenyl)furan” (J Med Chem, 1999)
